Our source for the inhibition values is PMC3812281, “Synthetic Oxoisoaporphine Alkaloids: In Vitro, In Vivo and In Silico Assessment of Antileishmanial Activities” (PLoS ONE, 2013).

This assay deals with T1, acetylcholinesterase (AChE) (Homo sapiens, UniProt P22303).
T1 construct: recombinant acetylcholinesterase (AChE) expressed in HEK 293 cells
T1 sequence (P22303 32-614): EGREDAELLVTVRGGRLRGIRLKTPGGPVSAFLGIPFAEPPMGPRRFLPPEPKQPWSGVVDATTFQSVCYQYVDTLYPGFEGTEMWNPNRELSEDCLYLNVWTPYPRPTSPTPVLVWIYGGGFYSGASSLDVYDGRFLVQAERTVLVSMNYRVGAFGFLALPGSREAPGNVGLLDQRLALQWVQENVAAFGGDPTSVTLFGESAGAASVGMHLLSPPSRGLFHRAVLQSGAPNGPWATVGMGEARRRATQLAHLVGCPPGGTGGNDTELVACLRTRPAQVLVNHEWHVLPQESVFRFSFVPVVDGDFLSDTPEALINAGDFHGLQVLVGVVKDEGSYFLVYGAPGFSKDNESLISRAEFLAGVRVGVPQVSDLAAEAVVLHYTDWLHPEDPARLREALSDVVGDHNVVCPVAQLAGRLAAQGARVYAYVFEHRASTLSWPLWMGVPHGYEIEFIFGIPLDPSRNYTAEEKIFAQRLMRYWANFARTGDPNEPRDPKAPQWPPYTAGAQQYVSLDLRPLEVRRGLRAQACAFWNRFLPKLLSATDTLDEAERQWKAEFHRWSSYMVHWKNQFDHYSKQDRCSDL
Description: Ellman assay, percent inhibition at […]. The format is biochemical. On the technique in general: In Ellman's method for cholinesterases, released thiocholine reacts with DTNB.
With `O=C1c2ccccc2C2=NCCc3cccc1c32` [OXO 1, 2,3-dihydro-7H-dibenzo[de,h]quinolin-7-one], at 75 µM the inhibition was 26.2 ± 5.6%. In the case of `O=C1C2=C(CCCC2)C2=NCCc3cccc1c32` [OXO 13, 2,3,8,9,10,11-hexahydro-7H-dibenzo[de,h]quinolin-7-one] it was 25.6 ± 5.9%; in that of `C#CCN[C@@H]1CCc2ccccc21` [Rasagiline, reference compound], 82.5 ± 4.3%.

Broadly, the inhibition is how much of the control response was suppressed.
